Experimental data: ChEMBL document CHEMBL1148459, “1-alkyl-4-acylpiperazines as a new class of imidazole-free histamine H(3) receptor antagonists” (J Med Chem, 2004)

Each compound was assayed against Histamine H3 receptor (Homo sapiens, UniProt Q9Y5N1) (assay: Antagonist potency against human histamine H3 receptor expressed in CHO cells was determined by GTPgamma-S-assay).
Assay type: functional, cell-based

Chain of Histamine H3 receptor (Q9Y5N1 whole entry): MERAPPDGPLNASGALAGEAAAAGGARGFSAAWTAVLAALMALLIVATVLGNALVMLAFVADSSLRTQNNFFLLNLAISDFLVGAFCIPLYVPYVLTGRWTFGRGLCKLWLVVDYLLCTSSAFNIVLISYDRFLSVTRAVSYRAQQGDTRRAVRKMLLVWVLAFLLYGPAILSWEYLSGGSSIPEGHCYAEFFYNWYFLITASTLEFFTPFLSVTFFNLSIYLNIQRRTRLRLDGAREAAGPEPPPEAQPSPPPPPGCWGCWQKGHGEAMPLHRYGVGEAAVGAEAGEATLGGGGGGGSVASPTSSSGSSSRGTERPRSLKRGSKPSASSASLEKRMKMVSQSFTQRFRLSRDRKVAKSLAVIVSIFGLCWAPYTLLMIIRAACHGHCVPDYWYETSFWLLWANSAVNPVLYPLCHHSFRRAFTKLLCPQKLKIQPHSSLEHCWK

Ki [nM]	SMILES
3.6	O=C(CCC(=O)N1CCN(C2CCCCC2)CC1)c1ccc(Cl)cc1
8.3	O=C(CCC(=O)N1CCN(CC2CC2)CC1)c1ccc(Cl)cc1
0.43	CCC(CC)N1CCN(C(=O)CCC(=O)c2ccc(OC)c(F)c2)CC1
8.5	CCC(CC)N1CCN(C(=O)CCc2ccc(C(F)(F)F)cc2)CC1
0.54	CCC(C)(C)N1CCN(C(=O)CCC(=O)c2ccc(Cl)cc2)CC1
1.5	CCC(CC)N1CCN(C(=O)CCC(=O)c2ccc(F)cc2)CC1
9.2	O=C(CCC(=O)N1CCN(C2CCOCC2)CC1)c1ccc(Cl)cc1
0.74	CCC(CC)N1CCN(C(=O)CCOc2ccc(C#N)cc2)CC1
480	CCCC(CCC)N1CCN(C(=O)CCC(=O)c2ccc(Cl)cc2)CC1
1.2	CCC(CC)N1CCN(C(=O)CCOc2ccc(Cl)cc2)CC1
1.4	CCC(CC)N1CCN(C(=O)CCC(=O)c2ccc(C(F)(F)F)cc2)CC1
4.4	CC(C)N1CCN(C(=O)CCC(=O)c2ccc(Cl)cc2)CC1
2.7	CCC(CC)N1CCN(C(=O)CCC(=O)c2ccc(OC(F)(F)F)cc2)CC1
34	O=C(CCC(=O)N1CCN(C2CCCCCC2)CC1)c1ccc(Cl)cc1
1.2	O=C(CCC(=O)N1CCN(C2CCC2)CC1)c1ccc(Cl)cc1
450	O=C(CCC(=O)N1CCN(C2CCCCCCC2)CC1)c1ccc(Cl)cc1
93	CCC(CC)N1CCN(C(=O)c2ccc(OC(F)(F)F)cc2)CC1
13.3	O=C(CCC(=O)N1CCN(C2CC2)CC1)c1ccc(Cl)cc1
89	C#CC(C)(C)N1CCN(C(=O)CCC(=O)c2ccc(Cl)cc2)CC1
0.86	CCC(CC)N1CCN(C(=O)CCC(=O)c2ccc(Cl)cc2)CC1

SMILES	Ki [nM]
CCC(CC)N1CCN(C(=O)COc2ccc(OC(F)(F)F)cc2)CC1	110
CCC(CC)N1CCN(C(=O)Cc2ccc(-c3ccccc3)cc2)CC1	2.9
CCC(CC)N1CCN(C(=O)Cc2ccc(C(C)=O)cc2)CC1	24
CCC(CC)N1CCN(C(=O)Cc2ccc(N(C)C)cc2)CC1	0.96
CCC(CC)N1CCN(C(=O)Cc2ccc(C(F)(F)F)cc2)CC1	2.3
CCC(CC)N1CCN(C(=O)Cc2ccc(OC(F)(F)F)cc2)CC1	2.6
